{"source": "patent US20140242093A1", "about": "“METHODS AND COMPOSITIONS FOR MODULATING THE INNATE IMMUNE RESPONSE AND/OR MYOGENESIS IN A MAMMALIAN SUBJECT” (FRED HUTCHINSON CANCER RESEARCH CENTER, priority 2011, published 2014)", "key": {"[1]": {"tested_on": "Human myoblasts", "test": "Expression array of the innate immune response to lentiviral infection versus uninfected cells", "type": "cell-based", "description": "RNA was harvested from the lenti-viral infected cells and uninfected control cells at 24 hours after infection."}, "[2]": {"tested_on": "Cultured control human myoblasts", "test": "Beta-defensin 3 and innate immune response, real-time qPCR of IFIH1, ISG20, DEFB103", "type": "cell-based", "description": "Cultured control human myoblasts were grown to 80% confluence and infected with equivalent titers of lenti-GFP, lenti-DUX4-s and lenti-DUX4-fl in growth media supplemented with 8 μg/mL polybrene. Expression of innate immune responsive genes including IFIH1 (MDA5), ISG20 and DEFB103 were assessed by real-time qPCR as previously described at 24 hours (primer sequences below). For conditioned media, cells were infected with lenti-DUX4-fl for 12 hours, thoroughly washed 3 times with PBS and switched to fresh growth media to condition for 12 hours. Control conditioned media was produced from cells not infected with any lentivirus. Myoblasts were infected with lenti-GFP in either control conditioned media, lenti-DUX4-fl conditioned media or regular growth media supplemented with 1 μM human β-defensin 3 (Peptides International, Louisville, Ky.). Expression of innate immune responsive genes were examined after 24 hours."}}, "data": [{"substance": "DUX4-fl: full-length DUX4 protein (SEQ ID NO:110), expressed from lentiviral or pCS2 vectors or in vitro translated", "values": [{"measurement": "IFITM3 expression ratio vs NoLenti (.fc)", "setting": "[1]; gene IFITM3 NM_021034.2, vs uninfected, 24 hours after infection", "value": "−0.01", "unit": "log2 fold change"}, {"measurement": "IL1R1 expression ratio vs GFP (.fc)", "setting": "[1]; gene IL1R1 NM_000877.2, vs lenti-GFP, 24 hours after infection", "value": "−1.34", "unit": "log2 fold change"}, {"measurement": "IL1R1 expression ratio vs NoLenti (.fc)", "setting": "[1]; gene IL1R1 NM_000877.2, vs uninfected, 24 hours after infection", "value": 0.09, "unit": "log2 fold change"}, {"measurement": "IL7R expression ratio vs GFP (.fc)", "setting": "[1]; gene IL7R NM_002185.2, vs lenti-GFP, 24 hours after infection", "value": "−2.26", "unit": "log2 fold change"}, {"measurement": "IL7R expression ratio vs NoLenti (.fc)", "setting": "[1]; gene IL7R NM_002185.2, vs uninfected, 24 hours after infection", "value": "−0.49", "unit": "log2 fold change"}, {"measurement": "IL8 expression ratio vs GFP (.fc)", "setting": "[1]; gene IL8 NM_000584.2, vs lenti-GFP, 24 hours after infection", "value": "−3.88", "unit": "log2 fold change"}, {"measurement": "IL8 expression ratio vs NoLenti (.fc)", "setting": "[1]; gene IL8 NM_000584.2, vs uninfected, 24 hours after infection", "value": "−0.13", "unit": "log2 fold change"}, {"measurement": "IL18BP expression ratio vs GFP (.fc)", "setting": "[1]; gene IL18BP NM_173042.2, vs lenti-GFP, 24 hours after infection", "value": "−1.25", "unit": "log2 fold change"}, {"measurement": "IL18BP expression ratio vs NoLenti (.fc)", "setting": "[1]; gene IL18BP NM_173042.2, vs uninfected, 24 hours after infection", "value": 0.85, "unit": "log2 fold change"}, {"measurement": "IRF7 expression ratio vs GFP (.fc)", "setting": "[1]; gene IRF7 NM_004029.2, vs lenti-GFP, 24 hours after infection", "value": "−1.96", "unit": "log2 fold change"}, {"measurement": "IRF7 expression ratio vs NoLenti (.fc)", "setting": "[1]; gene IRF7 NM_004029.2, vs uninfected, 24 hours after infection", "value": 1.02, "unit": "log2 fold change"}, {"measurement": "IRF9 expression ratio vs GFP (.fc)", "setting": "[1]; gene IRF9 NM_006084.4, vs lenti-GFP, 24 hours after infection", "value": "−2.25", "unit": "log2 fold change"}, {"measurement": "IRF9 expression ratio vs NoLenti (.fc)", "setting": "[1]; gene IRF9 NM_006084.4, vs uninfected, 24 hours after infection", "value": 0.20, "unit": "log2 fold change"}, {"measurement": "MX1 expression ratio vs GFP (.fc)", "setting": "[1]; gene MX1 NM_002462.2, vs lenti-GFP, 24 hours after infection", "value": "−5.67", "unit": "log2 fold change"}, {"measurement": "MX1 expression ratio vs NoLenti (.fc)", "setting": "[1]; gene MX1 NM_002462.2, vs uninfected, 24 hours after infection", "value": 1.58, "unit": "log2 fold change"}, {"measurement": "NFIL3 expression ratio vs GFP (.fc)", "setting": "[1]; gene NFIL3 NM_005384.2, vs lenti-GFP, 24 hours after infection", "value": "−1.82", "unit": "log2 fold change"}, {"measurement": "NFIL3 expression ratio vs NoLenti (.fc)", "setting": "[1]; gene NFIL3 NM_005384.2, vs uninfected, 24 hours after infection", "value": 0.07, "unit": "log2 fold change"}, {"measurement": "NFKBIA expression ratio vs GFP (.fc)", "setting": "[1]; gene NFKBIA NM_020529.1, vs lenti-GFP, 24 hours after infection", "value": "−3.00", "unit": "log2 fold change"}, {"measurement": "NFKBIA expression ratio vs NoLenti (.fc)", "setting": "[1]; gene NFKBIA NM_020529.1, vs uninfected, 24 hours after infection", "value": "−0.83", "unit": "log2 fold change"}, {"measurement": "NFKBIZ expression ratio vs GFP (.fc)", "setting": "[1]; gene NFKBIZ NM_001005474.1, vs lenti-GFP, 24 hours after infection", "value": "−1.57", "unit": "log2 fold change"}, {"measurement": "NFKBIZ expression ratio vs NoLenti (.fc)", "setting": "[1]; gene NFKBIZ NM_001005474.1, vs uninfected, 24 hours after infection", "value": 0.30, "unit": "log2 fold change"}, {"measurement": "STAT1 expression ratio vs GFP (.fc)", "setting": "[1]; gene STAT1 NM_007315.2, vs lenti-GFP, 24 hours after infection", "value": "−2.92", "unit": "log2 fold change"}, {"measurement": "STAT1 expression ratio vs NoLenti (.fc)", "setting": "[1]; gene STAT1 NM_007315.2, vs uninfected, 24 hours after infection", "value": 1.08, "unit": "log2 fold change"}, {"measurement": "STAT2 expression ratio vs GFP (.fc)", "setting": "[1]; gene STAT2 NM_005419.2, vs lenti-GFP, 24 hours after infection", "value": "−2.69", "unit": "log2 fold change"}, {"measurement": "STAT2 expression ratio vs NoLenti (.fc)", "setting": "[1]; gene STAT2 NM_005419.2, vs uninfected, 24 hours after infection", "value": "−0.77", "unit": "log2 fold change"}, {"measurement": "TLR3 expression ratio vs GFP (.fc)", "setting": "[1]; gene TLR3 NM_003265.2, vs lenti-GFP, 24 hours after infection", "value": "−1.27", "unit": "log2 fold change"}, {"measurement": "TLR3 expression ratio vs NoLenti (.fc)", "setting": "[1]; gene TLR3 NM_003265.2, vs uninfected, 24 hours after infection", "value": "−0.06", "unit": "log2 fold change"}, {"measurement": "TNFAIP2 expression ratio vs GFP (.fc)", "setting": "[1]; gene TNFAIP2 NM_006291.2, vs lenti-GFP, 24 hours after infection", "value": "−1.59", "unit": "log2 fold change"}, {"measurement": "TNFAIP2 expression ratio vs NoLenti (.fc)", "setting": "[1]; gene TNFAIP2 NM_006291.2, vs uninfected, 24 hours after infection", "value": "−0.42", "unit": "log2 fold change"}, {"measurement": "TNFAIP3 expression ratio vs GFP (.fc)", "setting": "[1]; gene TNFAIP3 NM_006290.2, vs lenti-GFP, 24 hours after infection", "value": "−2.90", "unit": "log2 fold change"}, {"measurement": "TNFAIP3 expression ratio vs NoLenti (.fc)", "setting": "[1]; gene TNFAIP3 NM_006290.2, vs uninfected, 24 hours after infection", "value": "−0.38", "unit": "log2 fold change"}, {"measurement": "TNFAIP6 expression ratio vs GFP (.fc)", "setting": "[1]; gene TNFAIP6 NM_007115.2, vs lenti-GFP, 24 hours after infection", "value": "−2.21", "unit": "log2 fold change"}, {"measurement": "TNFAIP6 expression ratio vs NoLenti (.fc)", "setting": "[1]; gene TNFAIP6 NM_007115.2, vs uninfected, 24 hours after infection", "value": 1.63, "unit": "log2 fold change"}, {"measurement": "TNFRSF6B expression ratio vs GFP (.fc)", "setting": "[1]; gene TNFRSF6B NM_032945.2, vs lenti-GFP, 24 hours after infection", "value": "−1.68", "unit": "log2 fold change"}, {"measurement": "TNFRSF6B expression ratio vs NoLenti (.fc)", "setting": "[1]; gene TNFRSF6B NM_032945.2, vs uninfected, 24 hours after infection", "value": "−0.29", "unit": "log2 fold change"}, {"measurement": "TNFRSF10A expression ratio vs GFP (.fc)", "setting": "[1]; gene TNFRSF10A NM_003844.2, vs lenti-GFP, 24 hours after infection", "value": "−1.13", "unit": "log2 fold change"}, {"measurement": "TNFRSF10A expression ratio vs NoLenti (.fc)", "setting": "[1]; gene TNFRSF10A NM_003844.2, vs uninfected, 24 hours after infection", "value": 0.07, "unit": "log2 fold change"}, {"measurement": "TNFRSF14 expression ratio vs GFP (.fc)", "setting": "[1]; gene TNFRSF14 NM_003820.2, vs lenti-GFP, 24 hours after infection", "value": "−2.72", "unit": "log2 fold change"}, {"measurement": "TNFRSF14 expression ratio vs NoLenti (.fc)", "setting": "[1]; gene TNFRSF14 NM_003820.2, vs uninfected, 24 hours after infection", "value": "−1.36", "unit": "log2 fold change"}, {"measurement": "TNFSF10 expression ratio vs GFP (.fc)", "setting": "[1]; gene TNFSF10 NM_003810.2, vs lenti-GFP, 24 hours after infection", "value": "−1.13", "unit": "log2 fold change"}, {"measurement": "TNFSF10 expression ratio vs NoLenti (.fc)", "setting": "[1]; gene TNFSF10 NM_003810.2, vs uninfected, 24 hours after infection", "value": 0.14, "unit": "log2 fold change"}, {"measurement": "TNFSF13B expression ratio vs GFP (.fc)", "setting": "[1]; gene TNFSF13B NM_006573.3, vs lenti-GFP, 24 hours after infection", "value": "−1.76", "unit": "log2 fold change"}, {"measurement": "TNFSF13B expression ratio vs NoLenti (.fc)", "setting": "[1]; gene TNFSF13B NM_006573.3, vs uninfected, 24 hours after infection", "value": 0.12, "unit": "log2 fold change"}, {"measurement": "number of lentivirus-induced genes whose induction is suppressed", "setting": "[1]; out of 341", "value": 317, "unit": "genes"}, {"measurement": "number of the 341 lenti-GFP induced genes induced 2-fold or more", "setting": "[1]; vs uninfected cells, 24 hours", "value": 34, "unit": "genes"}, {"measurement": "expression of DEFB103A/B (β-defensin 3)", "setting": "[2]; FIG. 7B", "value": "robustly induced expression of DEFB103A/B"}, {"measurement": "induction of the innate immune response in myoblasts", "setting": "[2]; RT-qPCR, similar titers, FIG. 7A", "value": "did not"}]}]}
